Structures can show the parent of a compound that is named as a salt.
Target: T1, PARP-1 (Homo sapiens, UniProt P09874)
T1 construct: purchased Trevigen
Test: PARP-1 inhibitory activity, HT universal colorimetric PARP assay kit (Trevigen)
Type: biochemical
Conditions: estimation as calculated from a 4 point dose response curve; read-out: PARP-1 activity in vitro IC50
Procedure: The compounds were tested for PARP-1 inhibitory activity by using HT universal colorimetric PARP assay kit obtained from Trevigen, following manufacturer's protocol.

T1 sequence (P09874 whole entry): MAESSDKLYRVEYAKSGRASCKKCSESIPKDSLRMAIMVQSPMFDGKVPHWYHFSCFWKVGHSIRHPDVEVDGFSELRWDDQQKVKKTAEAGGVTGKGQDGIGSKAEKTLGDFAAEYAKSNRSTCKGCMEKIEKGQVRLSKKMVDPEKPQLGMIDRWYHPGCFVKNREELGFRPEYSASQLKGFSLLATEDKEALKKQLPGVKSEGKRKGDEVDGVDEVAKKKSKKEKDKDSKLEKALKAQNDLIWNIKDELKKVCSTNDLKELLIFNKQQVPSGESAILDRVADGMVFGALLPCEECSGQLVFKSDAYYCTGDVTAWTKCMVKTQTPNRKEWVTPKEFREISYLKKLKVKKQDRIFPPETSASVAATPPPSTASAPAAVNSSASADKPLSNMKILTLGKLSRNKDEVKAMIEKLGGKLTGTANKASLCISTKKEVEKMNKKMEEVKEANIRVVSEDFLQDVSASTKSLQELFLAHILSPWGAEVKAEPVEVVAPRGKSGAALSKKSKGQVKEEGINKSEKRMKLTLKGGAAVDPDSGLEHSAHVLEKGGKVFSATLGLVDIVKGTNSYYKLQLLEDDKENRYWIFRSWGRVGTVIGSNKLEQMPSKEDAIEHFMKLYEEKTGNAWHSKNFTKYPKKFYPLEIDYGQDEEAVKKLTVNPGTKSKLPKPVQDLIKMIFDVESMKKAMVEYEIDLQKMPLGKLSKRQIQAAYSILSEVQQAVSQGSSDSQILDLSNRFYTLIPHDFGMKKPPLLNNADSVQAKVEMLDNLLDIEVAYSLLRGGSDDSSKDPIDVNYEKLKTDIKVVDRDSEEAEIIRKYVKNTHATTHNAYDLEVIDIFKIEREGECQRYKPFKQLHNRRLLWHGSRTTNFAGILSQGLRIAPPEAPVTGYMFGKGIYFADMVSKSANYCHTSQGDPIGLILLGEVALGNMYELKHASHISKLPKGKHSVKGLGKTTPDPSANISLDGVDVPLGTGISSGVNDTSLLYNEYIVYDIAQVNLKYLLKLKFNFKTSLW

IC50 | SMILES
11.5 nM | O=C(c1cc(Cc2n[nH]c(=O)c3ccccc23)ccc1F)N1CC2CN(Cc3ccccc3)CC2C1 (single isomer, unassigned) [Compound 1, 4-(3-(5-benzyloctahydropyrrolo[3,4-c]pyrrole-2-carbonyl)-4-fluorobenzyl)phthalazin-1(2H)-one]
24 nM | O=C(c1cc(Cc2n[nH]c(=O)c3ccccc23)ccc1F)N1CC2CN(Cc3ccccc3)CC2C1 (single isomer, unassigned) [Compound 9, 4-(3-(5-benzyloctahydropyrrolo[3,4-c]pyrrole-2-carbonyl)-4-fluorobenzyl)phthalazin-1(2H)-one hydrochloride]
8.41 nM | O=C(c1cc(Cc2n[nH]c(=O)c3ccccc23)ccc1F)N1CC2C(=O)N(Cc3ccccc3)C(=O)C2C1 (stereo not shown) [Compound 2, 2-benzyl-5-(2-fluoro-5-((4-oxo-3,4-dihydrophthalazin-1-yl)methyl)benzoyl) tetrahydropyrrolo[3,4-c]pyrrole-1,3(2H,3aH)-dione]
14.6 nM | O=C(c1cc(Cc2n[nH]c(=O)c3ccccc23)ccc1F)N1Cc2cn[nH]c2C1 [Compound 3, 4-(4-fluoro-3-(1,4,5,6-tetrahydropyrrolo[3,4-c]pyrazole-5-carbonyl)benzyl) phthalazin-1 (2H)-one]
46.7 nM | O=C(c1cc(Cc2n[nH]c(=O)c3ccccc23)ccc1F)N1CC2CN(CC3CC3)CC2C1 (stereo not shown) [Compound 6, 4-(3-(5-(cyclopropylmethyl)octahydropyrrolo[3,4-c]pyrrole-2-carbonyl)-4-fluorobenzyl)phthalazin-1(2H)-one]
38.6 nM | O=C(c1cc(Cc2n[nH]c(=O)c3ccccc23)ccc1F)N1CC2CN(CC(F)(F)F)CC2C1 (stereo not shown) [Compound 7, 4-(4-fluoro-3-(5-(2,2,2-trifluoroethyl)octahydropyrrolo[3,4-c]pyrrole-2-carbonyl)benzyl)phthalazin-1 (2H)-one]
14.1 nM | O=C(c1cc(Cc2n[nH]c(=O)c3ccccc23)ccc1F)N1Cc2cnn(C(=O)C3CC3)c2C1 [Compound 12, 4-(3-(1-(cyclopropanecarbonyl)-1,4,5,6-tetrahydropyrrolo[3,4-c]pyrazole-5-carbonyl)-4-fluorobenzyl)phthalazin-1(2H)-one]
46.5 nM | O=C(c1cc(Cc2n[nH]c(=O)c3ccccc23)ccc1F)N1CC2COCC2C1 (stereo not shown) [Compound 14, 4-(4-fluoro-3-(hexahydro-1H-furo[3,4-c]pyrrole-5-carbonyl)benzyl)phthalazin-1 (2H)-one]
11.6 nM | O=C(c1cc(Cc2n[nH]c(=O)c3ccccc23)ccc1F)N1CC2CNCC2C1 (stereo not shown) [Compound 15, 4-(4-fluoro-3-(octahydropyrrolo[3,4-c]pyrrole-2-carbonyl)benzyl)phthalazin-1(2H)-one]
104 nM | CS(=O)(=O)N1CC2CN(C(=O)c3cc(Cc4n[nH]c(=O)c5ccccc45)ccc3F)CC2C1 (stereo not shown) [Compound 16, 4-(4-fluoro-3-(5-(methylsulfonyl)octahydropyrrolo[3,4-c]pyrrole-2-carbonyl)benzyl) phthalazin-1 (2H)-one]
34.4 nM | O=C(c1cc(Cc2n[nH]c(=O)c3ccccc23)ccc1F)N1CC2CN(Cc3ccc(F)cc3F)CC2C1 (stereo not shown) [Compound 19, 4-(3-(5-(2,4-difluorobenzyl)octahydropyrrolo[3,4-c]pyrrole-2-carbonyl)-4-fluorobenzyl)phthalazin-1(2H)-one]
22.6 nM | CN1CC2CN(C(=O)c3cc(Cc4n[nH]c(=O)c5ccccc45)ccc3F)CC2C1 (stereo not shown) [Compound 21, 4-(4-fluoro-3-(5-methyloctahydropyrrolo[3,4-c]pyrrole-2-carbonyl)benzyl)phthalazin-1(2H)-one]
20.2 nM | O=C1NC(=O)C2CN(C(=O)c3cc(Cc4n[nH]c(=O)c5ccccc45)ccc3F)CC12 (stereo not shown) [Compound 22, 5-(2-fluoro-5-((4-oxo-3,4-dihydrophthalazin-1-yl)methyl)benzoyl)tetrahydropyrrolo[3,4-c]pyrrole-1,3(2H,3aH)-dione]
67.8 nM | O=C(c1cc(Cc2n[nH]c(=O)c3ccccc23)ccc1F)N1CC2CCCC2C1 (stereo not shown) [Compound 23, 4-(4-fluoro-3-(octahydrocyclopenta[c]pyrrole-2-carbonyl)benzyl)phthalazin-1(2H)-one]
9.85 nM | O=C(c1cc(Cc2n[nH]c(=O)c3ccccc23)ccc1F)N1CC2CN(Cc3ccc(F)cc3)CC2C1 (stereo not shown) [Compound 24, 4-(4-fluoro-3-(5-(4-fluorobenzyl)octahydropyrrolo[3,4-c]pyrrole-2-carbonyl)benzyl) phthalazin-1 (2H)-one]
27.8 nM | O=C(c1cc(Cc2n[nH]c(=O)c3ccccc23)ccc1F)N1CC2CN(Cc3ccccc3F)CC2C1 (stereo not shown) [Compound 25, 4-(4-fluoro-3-(5-(2-fluorobenzyl)octahydropyrrolo[3,4-c]pyrrole-2-carbonyl)benzyl) phthalazin-1(2H)-one]
36 nM | COc1cccc(CN2CC3CN(C(=O)c4cc(Cc5n[nH]c(=O)c6ccccc56)ccc4F)CC3C2)n1 (stereo not shown) [Compound 26]

IC50 | SMILES
12.5 nM | CN1C(=O)C2CN(C(=O)c3cc(Cc4n[nH]c(=O)c5ccccc45)ccc3F)CC2C1=O (stereo not shown) [Compound 27, 5-(2-fluoro-5-((4-oxo-3,4-dihydrophthalazin-1-yl)methyl)benzoyl)-2-methyl tetrahydropyrrolo[3,4-c]pyrrole-1,3(2H,3aH)-dione]
18.4 nM | O=C(c1cc(Cc2n[nH]c(=O)c3ccccc23)ccc1F)N1CC2=C(C1)CS(=O)(=O)C2 [Compound 29, 4-(3-(2,2-dioxido-3,4,5,6-tetrahydro-1H-thieno[3,4-c]pyrrole-5-carbonyl)-4-fluorobenzyl)phthalazin-1(2H)-one]
9.87 nM | O=C(c1cc(Cc2n[nH]c(=O)c3ccccc23)ccc1F)N1Cc2cscc2C1 [Compound 30, 4-(3-(5,6-dihydro-4H-thieno[3,4-c]pyrrole-5-carbonyl)-4-fluorobenzyl)phthalazin-1(2H)-one]
24.2 nM | O=C(c1cc(Cc2n[nH]c(=O)c3ccccc23)ccc1F)N1CC2=C(CNC2)C1 [Compound 31, 4-(4-fluoro-3-(1,2,3,4,5,6-hexahydropyrrolo[3,4-c]pyrrole-2-carbonyl)benzyl) phthalazin-1(2H)-one]
11.5 nM | O=C(c1cc(Cc2n[nH]c(=O)c3ccccc23)ccc1F)N1CC2CN(c3ccccc3)CC2C1 (stereo not shown) [Compound 32, 4-(4-fluoro-3-(5-phenyloctahydropyrrolo[3,4-c]pyrrole-2-carbonyl)benzyl)phthalazin-1(2H)-one]
28.5 nM | CN1CC2=C(C1)CN(C(=O)c1cc(Cc3n[nH]c(=O)c4ccccc34)ccc1F)C2 [Compound 33, 4-(4-fluoro-3-(5-methyl-1,2,3,4,5,6-hexahydropyrrolo[3,4-c]pyrrole-2-carbonyl)benzyl) phthalazin-1 (2H)-one]
91 nM | O=C(c1cc(Cc2n[nH]c(=O)c3ccccc23)ccc1F)N1CC2CN(C(F)F)CC2C1 (stereo not shown) [Compound 38, 4-(3-(5-(difluoromethyl)octahydropyrrolo[3,4-c]pyrrole-2-carbonyl)-4-fluorobenzyl) phthalazin-1 (2H)-one]
54.5 nM | O=C1C[C@@H]2CN(C(=O)c3cc(Cc4n[nH]c(=O)c5ccccc45)ccc3F)C[C@@H]2C1 [Compound 39, 4-(4-fluoro-3-((3 aR,6aS)-5-oxooctahydrocyclopenta[c]pyrrole-2-carbonyl)benzyl) phthalazin-1 (2H)-one]
8.9 nM | CCn1cc2c(n1)CN(C(=O)c1cc(Cc3n[nH]c(=O)c4ccccc34)ccc1F)C2 [Compound 41, 4-(3-(2-ethyl-2,4,5,6-tetrahydropyrrolo[3,4-c]pyrazole-5-carbonyl)-4-fluorobenzyl) phthalazin-1 (2H)-one]
48.6 nM | CCn1ncc2c1CN(C(=O)c1cc(Cc3n[nH]c(=O)c4ccccc34)ccc1F)C2 [Compound 42, 4-(3-(1-ethyl-1,4,5,6-tetrahydropyrrolo[3,4-c]pyrazole-5-carbonyl)-4-fluorobenzyl) phthalazin-1 (2H)-one]
55.1 nM | CC(C)n1ncc2c1CN(C(=O)c1cc(Cc3n[nH]c(=O)c4ccccc34)ccc1F)C2 [Compound 43, 4-(4-fluoro-3-(1-isopropyl-1,4,5,6-tetrahydropyrrolo[3,4-c]pyrazole-5-carbonyl)benzyl)phthalazin-1 (2H)-one]
13.8 nM | CC(C)n1cc2c(n1)CN(C(=O)c1cc(Cc3n[nH]c(=O)c4ccccc34)ccc1F)C2 [Compound 45, 4-(4-fluoro-3-(2-isopropyl-2,4,5,6-tetrahydropyrrolo[3,4-c]pyrazole-5-carbonyl)benzyl) phthalazin-1(2H)-one]
27.8 nM | O=C(c1cc(Cc2n[nH]c(=O)c3ccccc23)ccc1F)N1C[C@@H]2CC(F)(F)C[C@@H]2C1 [Compound 46, 4-(3-((3 aR,6aS)-5,5-difluorooctahydrocyclopenta[c]pyrrole-2-carbonyl)-4-fluorobenzyl)phthalazin-1(2H)-one]
48.3 nM | COCCN1CC2CN(C(=O)c3cc(Cc4n[nH]c(=O)c5ccccc45)ccc3F)CC2C1 (stereo not shown) [Compound 47, 4-(4-fluoro-3-(5-(2-methoxyethyl)octahydropyrrolo[3,4-c]pyrrole-2-carbonyl)benzyl) phthalazin-1 (2H)-one]
74.5 nM | O=C(NC1C[C@@H]2CN(C(=O)c3cc(Cc4n[nH]c(=O)c5ccccc45)ccc3F)C[C@@H]2C1)C1CC1 (stereo partly drawn) [Compound 48, N-((3 aR,6aS)-2-(2-fluoro-5-((4-oxo-3,4-dihydrophthalazin-1-yl)methyl)benzoyl)octahydrocyclopenta[c]pyrrol-5-yl)cyclopropanecarboxamide]
15.4 nM | Cn1ncc2c1CN(C(=O)c1cc(Cc3n[nH]c(=O)c4ccccc34)ccc1F)C2 [Compound 54, 4-(4-fluoro-3-(1-methyl-1,4,5,6-tetrahydropyrrolo[3,4-c]pyrazole-5-carbonyl)benzyl) phthalazin-1 (2H)-one benzenesulfonate]
13.2 nM | CC(C)n1cc2c(n1)CN(C(=O)c1cc(Cc3n[nH]c(=O)c4ccccc34)ccc1F)C2 [Compound 55, 5-(2-fluoro-5-((4-oxo-3,4-dihydrophthalazin-1-yl)methyl)benzoyl)-2-isopropyl-2,4,5,6-tetrahydropyrrolo[3,4-c]pyrazol-2-ium hydrogensulfate]
